Measured values taken from US20210045385A1, “PYRIDAZINONE-SUBSTITUTED KETOXIMES AS HERBICIDES” (FMC Corporation, priority 2018, published 2021).

Assays:
Type in all cases: in vivo
[1] = system: kochia (Kochia scoparia); assay: Test A preemergence, visual plant response rating; details: approx. 10 days
Outline: (§1)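 Ratings use a 0–100 visual scale (100 = complete control) against untreated controls, scored about 10 days after greenhouse treatment. Test chemicals were formulated in surfactant-containing non-phytotoxic solvent and applied either as soil spray after planting (preemergence) or onto one- to two-leaf, 2–10 cm plants (postemergence).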

[2] = system: ragweed (common ragweed, Ambrosia elatior); assay: Test A preemergence, visual plant response rating; details: approx. 10 days
Outline: as §1

[3] = system: barnyardgrass (Echinochloa crus-galli); assay: Test A preemergence, visual plant response rating; details: approx. 10 days
Outline: as §1

[4] = system: foxtail, green (green foxtail, Setaria viridis); assay: Test A preemergence, visual plant response rating; details: approx. 10 days
Outline: as §1

[5] = system: Italian ryegrass (Lolium multiflorum); assay: Test A preemergence, visual plant response rating; details: approx. 10 days
Outline: as §1

[6] = system: pigweed (Amaranthus retroflexus); assay: Test A preemergence, visual plant response rating; details: approx. 10 days
Outline: as §1

[7] = system: kochia (Kochia scoparia); assay: Test A postemergence, visual plant response rating
Outline: as §1

[8] = system: ragweed (common ragweed, Ambrosia elatior); assay: Test A postemergence, visual plant response rating
Outline: as §1

[9] = system: corn (Zea mays); assay: Test A postemergence, visual plant response rating
Outline: as §1

[10] = system: wheat (Triticum aestivum); assay: Test A postemergence, visual plant response rating
Outline: as §1

[11] = system: barnyardgrass (Echinochloa crus-galli); assay: Test A postemergence, visual plant response rating
Outline: as §1

[12] = system: foxtail, green (green foxtail, Setaria viridis); assay: Test A postemergence, visual plant response rating
Outline: as §1

[13] = system: blackgrass (Alopecurus myosuroides); assay: Test A postemergence, visual plant response rating
Outline: as §1

[14] = system: Italian ryegrass (Lolium multiflorum); assay: Test A postemergence, visual plant response rating
Outline: as §1

[15] = system: pigweed (Amaranthus retroflexus); assay: Test A postemergence, visual plant response rating
Outline: as §1

[16] = system: sedge, umbrella (small-flower umbrella sedge, Cyperus difformis); assay: Test B flooded paddy test, visual plant response rating; details: 250 g ai/ha, Flood, applied to paddy water, 2-leaf stage, evaluated after 13 to 15 days
Outline: (§2)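 Greenhouse paddy conditions applied: two-leaf plants, a 3 cm flood above the soil surface maintained throughout, and compound added to the water rather than the foliage. Plants were judged visually against controls at 13 to 15 days.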

[17] = system: barnyardgrass (Echinochloa crus-galli); assay: as above; details: 250 g ai/ha, Flood, applied to paddy water, 2-leaf stage, evaluated after 13 to 15 days
Outline: as §2

[18] = system: ducksalad (Heteranhera limosa); assay: as above; details: 250 g ai/ha, Flood, applied to paddy water, 2-leaf stage, evaluated after 13 to 15 days
Outline: as §2

[19] = system: rice (Oryza sativa); assay: as above; details: 250 g ai/ha, Flood, applied to paddy water, 2-leaf stage, evaluated after 13 to 15 days
Outline: as §2

[20] = system: corn (Zea mays); assay: Test C postemergence, visual plant response rating
Outline: (§3)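 Visual injury on a 0 (no effect) to 100 (complete control) scale versus untreated controls, scored approximately 10 d after treatment under greenhouse conditions. Treatments used surfactant-containing non-phytotoxic solvent formulations, sprayed onto loam–sand soil preemergence or onto one- to two-leaf plants 2–10 cm tall postemergence.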

[21] = system: wheat (Triticum aestivum); assay: Test C postemergence, visual plant response rating
Outline: as §3

[22] = system: barnyardgrass (Echinochloa crus-galli); assay: Test C postemergence, visual plant response rating
Outline: as §3

[23] = system: blackgrass (Alopecurus myosuroides); assay: Test C postemergence, visual plant response rating
Outline: as §3

[24] = system: Italian ryegrass (Lolium mutiflorum); assay: Test C postemergence, visual plant response rating
Outline: as §3

[25] = system: kochia (Bassia scoparia); assay: Test C postemergence, visual plant response rating
Outline: as §3

[26] = system: pigweed (Amaranthus retroflexus); assay: Test C postemergence, visual plant response rating
Outline: as §3

[27] = system: ragweed (common ragweed, Ambrosia artemisiifolia); assay: Test C postemergence, visual plant response rating
Outline: as §3

[28] = system: galium (catchweed bedstraw, Galium aparine); assay: Test C postemergence, visual plant response rating
Outline: as §3

[29] = system: foxtail, giant (giant foxtail, Setaria faberi); assay: Test C postemergence, visual plant response rating
Outline: as §3

[30] = system: barnyardgrass (Echinochloa crus-galli); assay: Test C preemergence, visual plant response rating; details: Test C, 0 is no effect, 100 is complete control
Outline: as §3

[31] = system: Italian ryegrass (Lolium mutiflorum); assay: Test C preemergence, visual plant response rating; details: Test C, 0 is no effect, 100 is complete control
Outline: as §3

[32] = system: kochia (Bassia scoparia); assay: Test C preemergence, visual plant response rating; details: Test C, 0 is no effect, 100 is complete control
Outline: as §3

[33] = system: pigweed (Amaranthus retroflexus); assay: Test C preemergence, visual plant response rating; details: Test C, 0 is no effect, 100 is complete control
Outline: as §3

[34] = system: ragweed (common ragweed, Ambrosia artemisiifolia); assay: Test C preemergence, visual plant response rating; details: Test C, 0 is no effect, 100 is complete control
Outline: as §3

[35] = system: foxtail, giant (giant foxtail, Setaria faberi); assay: Test C preemergence, visual plant response rating; details: Test C, 0 is no effect, 100 is complete control
Outline: as §3

[36] = system: duck salad (Heteranthera limosa); assay: Test D flooded paddy test, visual plant response rating; details: 250 g ai/ha, scale 0 to 100 (0 no effect, 100 complete control), 13 to 15 d
Outline: (§4)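 Rating is visual, on a 0 (no effect) to 100 (complete control) scale versus controls, taken 13 to 15 d after treatment in a greenhouse. Treatment went into paddy water kept 3 cm above the soil surface, with plants at the 2-leaf stage.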

[37] = system: barnyardgrass (Echinochloa crus-galli); assay: as above; details: 250 g ai/ha, scale 0 to 100 (0 no effect, 100 complete control), 13 to 15 d
Outline: as §4

[38] = system: sedge umbrella (small-flower umbrella sedge, Cyperus difformis); assay: as above; details: 250 g ai/ha, scale 0 to 100 (0 no effect, 100 complete control), 13 to 15 d
Outline: as §4

[39] = system: rice (Oryza sativa); assay: as above; details: 250 g ai/ha, scale 0 to 100 (0 no effect, 100 complete control), 13 to 15 d
Outline: as §4

[40] = 500 g ai/ha, postemergence, 0 is no effect, 100 is complete control
[41] = Postemergence, 125 g ai/ha, 0 to 100 scale (0 no effect, 100 complete control)
[42] = Test C, postemergence, 125 g ai/ha

CO/N=C(/c1cccc(Cl)c1)c1c(O)c(C)nn(C)c1=O [Compound 11, 4-[(Z)-(3-chlorophenyl)(methoxyimino)methyl]-5-hydroxy-2,6-dimethyl-3(2H)-pyridazinone]
Kochia plant response rating (0 to 100 scale) ([1]; 125 g ai/ha Preemergence): 10
Kochia plant response rating (0 to 100 scale) ([1]; 500 g ai/ha Preemergence): 80
Ragweed plant response rating (0 to 100 scale) ([2]; 125 g ai/ha Preemergence): 50
Ragweed plant response rating (0 to 100 scale) ([2]; 500 g ai/ha Preemergence): 50
Barnyardgrass plant response rating (0 to 100 scale) ([3]; 125 g ai/ha Preemergence): 0
Barnyardgrass plant response rating (0 to 100 scale) ([3]; 500 g ai/ha Preemergence): 40
Foxtail, Green plant response rating (0 to 100 scale) ([4]; 125 g ai/ha Preemergence): 0
Foxtail, Green plant response rating (0 to 100 scale) ([4]; 500 g ai/ha Preemergence): 70
Ryegrass, Italian plant response rating (0 to 100 scale) ([5]; 125 g ai/ha Preemergence): 60
Ryegrass, Italian plant response rating (0 to 100 scale) ([5]; 500 g ai/ha Preemergence): 80
Pigweed plant response rating (0 to 100 scale) ([6]; 125 g ai/ha Preemergence): 40
Pigweed plant response rating (0 to 100 scale) ([6]; 500 g ai/ha Preemergence): 100
Kochia plant response rating (0 to 100 scale) [7, 40]: 80
Kochia plant response rating [7, 41]: 70
Ragweed plant response rating (0 to 100 scale) [8, 40]: 100
Ragweed plant response rating [8, 41]: 80
Corn plant response rating (0 to 100 scale) [9, 40]: 10
Corn plant response rating [9, 41]: 0
Wheat plant response rating (0 to 100 scale) [10, 40]: 10
Wheat plant response rating [10, 41]: 0
Barnyardgrass plant response rating (0 to 100 scale) [11, 40]: 10
Barnyardgrass plant response rating [11, 41]: 10
Foxtail, Green plant response rating (0 to 100 scale) [12, 40]: 40
Foxtail, Green plant response rating [12, 41]: 10
Blackgrass plant response rating (0 to 100 scale) [13, 40]: 70
Blackgrass plant response rating [13, 41]: 30
Ryegrass, Italian plant response rating (0 to 100 scale) [14, 40]: 80
Ryegrass, Italian plant response rating [14, 41]: 60
Pigweed plant response rating (0 to 100 scale) [15, 40]: 80
Pigweed plant response rating [15, 41]: 40
Plant response rating, Sedge, Umbrella (0 to 100 scale, 0 is no effect, 100 is complete control) [16]: 0
Plant response rating, Barnyardgrass (0 to 100 scale, 0 is no effect, 100 is complete control) [17]: 0
Plant response rating, Ducksalad (0 to 100 scale, 0 is no effect, 100 is complete control) [18]: 0
Plant response rating, Rice (0 to 100 scale, 0 is no effect, 100 is complete control) [19]: 0

CCO/N=C(/c1c(O)c(C)nn(C)c1=O)c1cccc2cc(Cl)ccc12 [Compound 244]
Corn plant response rating (0 to 100 scale) ([20]; Postemergence, 31 g ai/ha): 10
Corn plant response rating (0 to 100 scale) [20, 42]: 30
Wheat plant response rating (0 to 100 scale) ([21]; Postemergence, 31 g ai/ha): 0
Wheat plant response rating (0 to 100 scale) [21, 42]: 0
Barnyardgrass plant response rating (0 to 100 scale) ([22]; Postemergence, 31 g ai/ha): 30
Barnyardgrass plant response rating (0 to 100 scale) [22, 42]: 50
Blackgrass plant response rating (0 to 100 scale) ([23]; Postemergence, 31 g ai/ha): 40
Blackgrass plant response rating (0 to 100 scale) [23, 42]: 70
Ryegrass, Italian plant response rating (0 to 100 scale) ([24]; Postemergence, 31 g ai/ha): 0
Ryegrass, Italian plant response rating (0 to 100 scale) [24, 42]: 10
Kochia plant response rating (0 to 100 scale) ([25]; Postemergence, 31 g ai/ha): 20
Kochia plant response rating (0 to 100 scale) [25, 42]: 20
Pigweed plant response rating (0 to 100 scale) ([26]; Postemergence, 31 g ai/ha): 80
Pigweed plant response rating (0 to 100 scale) [26, 42]: 90
Ragweed plant response rating (0 to 100 scale) ([27]; Postemergence, 31 g ai/ha): 90
Ragweed plant response rating (0 to 100 scale) [27, 42]: 40
Galium plant response rating (0 to 100 scale) ([28]; Postemergence, 31 g ai/ha): 80
Galium plant response rating (0 to 100 scale) [28, 42]: 90
Foxtail, Giant plant response rating (0 to 100 scale) ([29]; Postemergence, 31 g ai/ha): 80
Foxtail, Giant plant response rating (0 to 100 scale) [29, 42]: 80
Barnyardgrass plant response rating (0 to 100 scale) ([30]; 31 g ai/ha): 40
Barnyardgrass plant response rating (0 to 100 scale) ([30]; 125 g ai/ha): 70
Ryegrass, Italian plant response rating (0 to 100 scale) ([31]; 31 g ai/ha): 0
Ryegrass, Italian plant response rating (0 to 100 scale) ([31]; 125 g ai/ha): 20
Kochia plant response rating (0 to 100 scale) ([32]; 31 g ai/ha): 0
Kochia plant response rating (0 to 100 scale) ([32]; 125 g ai/ha): 0
Pigweed plant response rating (0 to 100 scale) ([33]; 31 g ai/ha): 50
Pigweed plant response rating (0 to 100 scale) ([33]; 125 g ai/ha): 90
Ragweed plant response rating (0 to 100 scale) ([34]; 31 g ai/ha): 10
Ragweed plant response rating (0 to 100 scale) ([34]; 125 g ai/ha): 20
Foxtail, Giant plant response rating (0 to 100 scale) ([35]; 31 g ai/ha): 90
Foxtail, Giant plant response rating (0 to 100 scale) ([35]; 125 g ai/ha): 100
Plant response rating, Ducksalad (Flood) [36]: 50
Plant response rating, Barnyardgrass (Flood) [37]: 10
Plant response rating, Sedge, Umbrella (Flood) [38]: 45
Plant response rating, Rice (Flood) [39]: 15
